Counter-ions that a name gives are not always drawn.
Columns and labels:
[1] = target: T1, BK2 receptor sites in guinea pig ileum (Cavia porcellus, UniProt O70526); assay: Bradykinin Receptor Binding Assay (competition with 3H-bradykinin for BK2 receptor sites in guinea pig ileum); settings: 80 pM 3H-BK, guinea pig ileum homogenate; for IC50: 90 min, 25° C., pH 6.8, read-out: Bradykinin Binding in G.P. ileum, IC50; for inhibition at 10 µM: read-out: Bradykinin Binding in G.P. ileum, % inhibition at 10 μM
T1 construct: The tissue is cut into small pieces and homogenized in 20 volumes of homogenization buffer; from tissue; host or cells: guinea pig distal ileum, membrane homogenate (Hartley strain, male, adult; animals from Charles River)
T1 sequence (O70526 1-372): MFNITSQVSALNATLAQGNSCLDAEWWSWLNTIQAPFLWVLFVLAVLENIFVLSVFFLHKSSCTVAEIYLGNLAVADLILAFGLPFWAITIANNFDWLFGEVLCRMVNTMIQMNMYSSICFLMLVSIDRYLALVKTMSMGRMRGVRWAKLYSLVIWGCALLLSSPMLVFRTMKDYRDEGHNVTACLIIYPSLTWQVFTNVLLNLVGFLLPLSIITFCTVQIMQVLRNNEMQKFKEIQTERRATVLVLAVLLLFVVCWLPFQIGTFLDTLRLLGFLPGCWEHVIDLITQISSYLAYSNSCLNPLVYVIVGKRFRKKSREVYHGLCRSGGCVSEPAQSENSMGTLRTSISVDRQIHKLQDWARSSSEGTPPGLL
Experimental: 1. Bradykinin Receptor Binding Assay
The following procedure is used to identify compounds which compete specifically with triturated bradykinin (^3 H-BK) for BK2 receptor sites in guinea pig ileum.
The distal portion of adult, male guinea pig (Hartley strain, 350-500 g, Charles River) ileum is removed and placed in ice cold homogenization buffer [[…] N-tris (hydroxymethyl)methyl-2-aminoethane sulfonic acid (TES), 1 mM 1, 10-phenanthroline, adjusted to pH 6.8 with ammonium hydroxide].
The contents of the ileal lumen are rinsed out with cold homogenization buffer. The tissue is cut into small pieces and homogenized in 20 volumes of homogenization buffer 3 times of 10 seconds duration using a Brinkman Polytron homogenizer equipped with a PTA 10 TS generator at setting 5.
The homogenate is fillered through a surgical gauze sponge and centrifuged at 50,000 × g for 20 minutes at 4° C. The supernatant fluid is discarded and the homogenization and centrifugation procedures are repeated. After discarding the supernatant fluid, the final pellet is resuspended in 40 volumes of assay buffer (25 mM TES, pH 6.8, 1 mM 1,10-phenanthroline, 1 mM dithiothreitol, 2 μM captopril, 140 μg/ml bacitracin and 0.1% bovine serum albumin (BSA)). The homogenate is filtered once more through a surgical gauze sponge and kept on ice until used. The assay is performed using only polypropylene pipet tips and polypropylene test tubes. Each tube receives 100 μl of 800 pM ^3 H-BK, 100 μl of the test compound solution […] or vehicle (assay buffer), and 100 μl of 25 mg/ml tissue homogenate in a total volume of 1 ml. The final concentration of 3H-BK is 80 pM. The final tissue concentration is 2.5 mg/ml. Compounds are screened at 100 μM. Compounds which are not soluble in water are first solubilized in DMSO and then diluted 1:100 in the assay buffer. Addition of 100 μl of this sample to the assay will yield a final DMSO concentration of 0.1% which has been shown not to affect the binding assay. Nonspecific binding is determined in the presence of 1 μM unlabeled bradykinin. All determinmions are made in triplicate. Three 100 μl aliquots of the 800 pM 3H-BK working solution are added directly to scintillation vials to determine the total added radioactivity.
The tubes are incubated for 90 minutes at 25° C. while being gently agitated on an orbital shaker. Bound ligand is separated from free ligand, using Whatman GF/B glass fiber filters (pretreated with 0.1% aqueous polyethyleneimine made neutral with HCl). A Brandel receptor binding harvester is used. Assay tubes and glass fiber filters are rinsed three times with 3 ml of cold physiological saline.
The filter discs are transferred to 20 ml scintillation vials. Ten ml of aqueous sample LSC cocktail (Aquassure, New England Nuclear) is added to each vial. After capping, the vials are agitated for 5 minutes on an orbital shaker. The samples are counted for ten minutes in a refrigerated liquid scintillation counter to obtain the following values: Bt (total binding), Bns (non-specific binding) and Bx (total binding in the presence of the test compound). From these values, control specific binding (C=Bt -Bns), specific binding in the presence of the test compound (D=Bx -Bns), percent of control (D/C ×100) and percent inhibition (1-D/C)×100 are calculated.
If 50% inhibition is obtained at the screening concentration, the compound is considered active and a dilution series (typically 1:3 serial dilutions of the test compound) is tested in the binding assay. After calculation of the percent of control of each dilution, the values are analyzed and the IC50 with its 95% confidence limits is determined.

[2] = tested on: bradykinin-induced writhing in mice; assay: Bradykinin-induced Writhing in Mice; format: in vivo, mice (male CD-1); settings: for Bradykinin-induced writhing, % inhibition / Bradykinin-induced writhing, % inhibition at 30 mg/kg i.p.: mice
Experimental: 2. Bradykinin-induced Writhing in Mice
Male CD-1 Charles River mice (14-19g), fasted overnight but having free access to water, in groups of 10 (control and treated) are given an intraperitoneal (j.p.) injection of 1 mg/kg of prostaglandin PGE2 in phosphate buffered saline (10 μl/g) and after 20 minutes each mouse receives an i.p. injection of bradykinin (0.5 mg/kg in saline). The treatment group of mice receive a test compound either orally 1 hour prior to administration of bradykinin or i.p. 2 minutes prior to administration of bradykinin. Test compounds are given in saline if soluble or as a suspension in 0.5% Tween 80. The percent inhibition of writhing obtained is calculated as follows: [formula] where C is the mean number of writhes in the control group and D is the mean number of writhes in the drag group. If 30% inhibition or higher is observed with the screening dose, the test compound is considered active. Several logarithmically spaced doses will be tested and the ED50 determined by regression methods with inverse prediction.

SMILES | IC50 [1] [nM] | further results
COc1cccc(CN2CCC(NC(=O)c3cnc4c(OC)cccc4c3Nc3ccc(C(=O)NC4CCN(Cc5ccccc5)CC4)cc3)CC2)c1 [Ex. 15, N-[1-[(3-Methoxyphenyl)methyl]-4-piperidinyl]-8-methoxy-4-[[4-[[[1-(phenylmethyl)-4-piperidinyl]amino]carbonyl]phenyl]amino]-3-quinoline-carboxamide] | 220 | –
CN1CC[C@]23c4c5ccc(O)c4O[C@H]2[C@@H](O)C=C[C@H]3[C@H]1C5 [Morphine] | – | ED50 ([2]; Mus musculus, po, read-out: Bradykinin-induced writhing, ED50): 4.5 mg/kg
CCCCN1CCC(NC(=O)c2ccc(Nc3c(C(=O)NC4CCN(Cc5ccccc5)CC4)cnc4c(OC)cccc34)cc2)CC1 [Ex. 13, 4-[[4-[[(1-Butyl-4-piperidinyl)amino]carbonyl]phenyl]amino]-8-methoxy-N-[1-(phenylmethyl)-4-piperidinyl]-3-quinoinecarboxamide] | 2900 | –
CC(C)Cc1ccc(C(C)C(=O)O)cc1 (stereo not drawn) [Ibuprofen] | – | Bradykinin-induced writhing, % inhibition ([2]; 200 mg/kg p.o.): 43%
COc1cccc2c(Nc3ccc(C(=O)NC4CCN(Cc5ccccc5)CC4)cc3)c(C(=O)N(C)C3CCN(C)CC3)cnc12 [Ex. 14] | 1400 | –
O=C(NC1CCN(Cc2ccccc2)CC1)c1ccc(Nc2c(C(=O)NC3CCN(Cc4ccccc4)CC3)cnc3cc(Cl)ccc23)cc1 [Ex. 17, 7-Chloro-N-[1-(phenylmethyl)-4-piperidinyl]-4-[[4-[[[1-(phenylmethyl)-4-piperidinyl]amino]carbonyl]phenyl]amino]-3-quinolinecarboxamide] | 430 | –
CC(=O)Nc1ccc(O)cc1 [Acetaminophen] | – | Bradykinin-induced writhing, % inhibition ([2]; 300 mg/kg p.o.): 20%
CCCCN1CCC(N(Cc2ccc(Nc3c(C(=O)NC4CCN(Cc5ccccc5)CC4)cnc4c(OC)cccc34)cc2)C(=O)CCC)CC1 [Ex. 10] | – | inhibition at 10 µM [1]: 42.8%
CCN(CC)C(=O)CCCCCN1CCC(NC(=O)c2cnc3c(OC)cccc3c2Nc2ccc(C(=O)NC3CCN(Cc4ccccc4)CC3)cc2)CC1 [Ex. 9, N-[1-[6-(Diethylamino)-6-oxohexyl]-4-piperidinyl]-8-methoxy-4-[[4-[[[1-(phenylmethyl)-4-piperidinyl]amino]carbonyl]-phenyl]amino]-3-quinolinecarboxamide] | 2600 | Bradykinin-induced writhing, % inhibition at 30 mg/kg i.p. [2]: 46%
CCN(CC)C(=O)c1cccc(CN2CCC(NC(=O)c3cnc4c(OC)cccc4c3Nc3ccc(C(=O)NC4CCN(Cc5ccccc5)CC4)cc3)CC2)c1 [Ex. 11] | 1600 | –
CCN(CCN(C)C)C(=O)c1cnc2c(OC)cccc2c1Nc1ccc(C(=O)NC2CCN(Cc3ccccc3)CC2)cc1 [Ex. 5, N-[2-(Dimethylamino)ethyl]-N-ethyl-8-methoxy-4-[[4-[[[1-(phenylmethyl)-4-piperidinyl]amino]carbonyl]phenyl]amino]-3-quinolinecarboxamide] | 2900 | –
COc1cccc2c(Nc3ccc(C(=O)NC4CCN(Cc5ccccc5)CC4)cc3)c(C(=O)NCCN(C)C)cnc12 [Ex. 4, N-[2-(Dimethylamino)ethyl]-8-methoxy-4-[[4-[[[1-(phenylmethyl) -4-piperidinyl]amino]carbonyl]phenyl]amino]-3-quinolinecarboxamide trifluoroacetate (1:4)] | 2700 | –
CCCCN1CCC(NC(=O)c2cnc3c(OC)cccc3c2Nc2ccc(C(=O)NC3CCN(Cc4ccccc4)CC3)cc2)CC1 [Ex. 8, N-(1-Butyl-4-piperidinyl)-8-methoxy-4-[[4-[[[1-(phenylmethyl) -4-piperidinyl]amino]carbonyl]phenyl]amino]-3-quinolinecarboxamide] | 1200 | Bradykinin-induced writhing, % inhibition at 30 mg/kg i.p. [2]: 32%
COc1cccc2c(Nc3ccc(C(=O)NC4CCN(Cc5ccccc5)CC4)cc3)c(C(=O)NC3CCN(Cc4ccc(C(C)(C)C)cc4)CC3)cnc12 [Ex. 1, N-[1-[4-(1,1-Dimethylethyl)phenyl]methyl-4-piperidinyl]-8-methoxy-4-[[4-[[[1-(phenylmethyl) -4-piperidinyl]amino]carbonyl]phenyl]amino]-3-quinolinecarboxamide] | 430 | –
COc1cccc2c(Nc3ccc(C(=O)NC4CCN(Cc5ccccc5)CC4)cc3)c(C(=O)NC3CCN(CCc4ccccc4)CC3)cnc12 [Ex. 12, N-[1-(2-Phenylethyl)-4-piperidinyl]-8-methoxy-4-[[4-[[[1-(phenylmethyl)-4piperidinyl]amino]carbonyl]phenyl]amino]-3-quinolinecarboxamide] | 670 | –
CCCCN1CCC(NCc2ccc(Nc3c(C(=O)NC4CCN(Cc5ccccc5)CC4)cnc4c(OC)cccc34)cc2)CC1 [Ex. 7, 4-[[4-[[(1-Butyl-4-piperidinyl)amino]methyl]phenyl]amino]-8-methoxy-N-[1-(phenyimethyl)-4-piperidinyl]-3-qinolinecarboxamide] | – | inhibition at 10 µM [1]: 50.5%
COc1cccc2c(Nc3ccc(C(=O)NC4CCN(Cc5ccccc5)CC4)cc3)c(C(=O)NC3CCN(Cc4cccc(Cl)c4)CC3)cnc12 [Ex. 2] | 79 | –
COc1cccc2c(Nc3ccc(C(=O)NC4CCN(Cc5ccccc5)CC4)cc3)c(C(=O)NC3CCN(Cc4ccccc4)CC3)cnc12 [Ex. 3] | 93 | Bradykinin-induced writhing, % inhibition at 30 mg/kg i.p. [2]: 20%
COc1cccc2c(Nc3ccc(C(=O)NC4CCN(Cc5ccccc5)CC4)cc3)c(C(=O)NC3CCN(Cc4cccc(C(F)(F)F)c4)CC3)cnc12 [Ex. 16] | 250 | –
CC(C(=O)O)c1cccc(C(=O)c2ccccc2)c1 (stereo not drawn) [Ketoprofen] | – | Bradykinin-induced writhing, % inhibition ([2]; 100 mg/kg p.o.): 52%
CCN(CC)C(=O)CCCCCN1CCC(N(Cc2ccc(Nc3c(C(=O)NC4CCN(Cc5ccccc5)CC4)cnc4c(OC)cccc34)cc2)C(=O)CCC2CCCC2)CC1 [Ex. 6] | 1440 | –

Source: patent publication US5438064A, “Derivatives of 4-anilinoquinoline-3-carboxamide as analgesic agents” (American Home Products Corporation, priority 1991, dated 1995)
